Where two headings read alike, the source gives them in different places.
Key:
[1] = in water, cited from earlier work; for exp ODT (ppb) water: experimental values from the Booleans database
[2] = GC-MS headspace release profile of Tropical Fruit perfume in shampoo, 1/100 dilution in water; assay type: physicochemical
Description: A 10 gram sample of formulation and fragrance was added to an empty 1000 ml pyrex beaker. This beaker was then filled with 1000 ml of 120 F tap water. Beaker with diluted shampoo sample was then immediately placed into a semi-enclosed plexiglass chamber.
Headspace Sampling: Once beaker was placed into chamber a Carboxan SPME field fiber was held at the top-side opening of the chamber over the beaker containing the sample. […] […] Top of plexiglass chamber was held open for entire 5 minutes of headspace sampling.

For `CCCCCCC(C=O)=Cc1ccccc1` [HEXYL CINNAMIC ALDEHYDE], the “ODT (ppb)” value ([1]; Table 13) is listed as “less than 50 ppb”, the “GC Abundance” value ([2]; headspace at 40 seconds) is listed as 2000 and the “GC Abundance” value ([2]; headspace at 50 seconds) is listed as 9000.

For `CC(=O)C=CC1=C(C)CCCC1(C)C` [IONONE BETA PURE, 4-(2,6,6-Trimethyl-1-cyclohexen-1-yl)-3-buten-2-one], the “ODT (ppb)” value ([1]; Table 9) is listed as “less than 50 ppb”, the “ODT (ppb)” value ([1]; Table 11) is listed as “less than 50 ppb” and the “ODT (ppb)” value ([1]; Table 13) is listed as “less than 50 ppb”. The “exp ODT (ppb) water” value [1] was 4-6 ppb, the “GC Abundance” value ([2]; headspace at 30 seconds) was 2000 and the “GC Abundance” value ([2]; headspace at 40 seconds) was 10000. For the same compound, the “GC Abundance” value ([2]; headspace at 50 seconds) was 18000.

For `C=CC(C)(O)CCC=C(C)C` (centres unmarked) [LINALOOL], the “ODT (ppb)” value ([1]; Table 9) is given as “less than 50 ppb”, the “ODT (ppb)” value ([1]; Table 11) is given as “less than 50 ppb” and the “ODT (ppb)” value ([1]; Table 13) is given as “less than 50 ppb”. For the same compound, the “GC Abundance” value ([2]; headspace at 10 seconds) was 500, the “GC Abundance” value ([2]; headspace at 20 seconds) was 18000 and the “GC Abundance” value ([2]; headspace at 30 seconds) was 18000. For the same compound, the “GC Abundance” value ([2]; headspace at 40 seconds) was 18000 and the “GC Abundance” value ([2]; headspace at 50 seconds) was 18000.

In the case of `CCCC(C)C(=O)OCC` (centres unmarked) [MANZANATE, Ethyl 2-methylpentanoate], the “exp ODT (ppb) water” value [1] is listed as 0.0030 ppb, the “GC Abundance” value ([2]; headspace at 10 seconds) is listed as 1000 and the “GC Abundance” value ([2]; headspace at 20 seconds) is listed as 4000. The “GC Abundance” value ([2]; headspace at 30 seconds) was 4000, the “GC Abundance” value ([2]; headspace at 40 seconds) was 3000 and the “GC Abundance” value ([2]; headspace at 50 seconds) was 1500.

In the case of `CC(C)=CC1CC(C)CCO1` (stereo not drawn) [ROSE OXIDE (HIGH CIS), Tetrahydro-4-methyl-2-(2-methylpropen-1-yl)pyran], the “exp ODT (ppb) water” value [1] is given as 0.5 ppb, the “GC Abundance” value ([2]; headspace at 20 seconds) is given as 10000 and the “GC Abundance” value ([2]; headspace at 30 seconds) is given as 14000. The “GC Abundance” value ([2]; headspace at 40 seconds) was 14000 and the “GC Abundance” value ([2]; headspace at 50 seconds) was 14000.

For `CC1=CC(C)C(C=O)CC1` (centres unmarked) [TRIPLAL], the “ODT (ppb)” value ([1]; Table 9) is given as “less than 50 ppb”, the “ODT (ppb)” value ([1]; Table 11) is given as “less than 50 ppb” and the “ODT (ppb)” value ([1]; Table 13) is given as “less than 50 ppb”. For the same compound, the “GC Abundance” value ([2]; headspace at 10 seconds) was 1000, the “GC Abundance” value ([2]; headspace at 20 seconds) was 14000 and the “GC Abundance” value ([2]; headspace at 30 seconds) was 14000. The “GC Abundance” value ([2]; headspace at 40 seconds) was 10000 and the “GC Abundance” value ([2]; headspace at 50 seconds) was 6000.

In the case of `CC(=O)OC1CCCCC1C(C)(C)C` (centres unmarked) [VERDOX], the “ODT (ppb)” value ([1]; Table 9) is given as “less than 50 ppb”, the “ODT (ppb)” value ([1]; Table 11) is given as “less than 50 ppb” and the “ODT (ppb)” value ([1]; Table 13) is given as “less than 50 ppb”. For the same compound, the “GC Abundance” value ([2]; headspace at 20 seconds) was 5000, the “GC Abundance” value ([2]; headspace at 30 seconds) was 14000 and the “GC Abundance” value ([2]; headspace at 40 seconds) was 18000. For the same compound, the “GC Abundance” value ([2]; headspace at 50 seconds) was 20000.

For `CC=CC(=O)C1C(C)=CCCC1(C)C` (stereo not drawn) [alpha-DAMASCONE, α-1-(2,6,6-Trimethyl-2-cyclohexen-1-yl)-2-buten-1-one], the “exp ODT (ppb) water” value [1] is listed as 1.5 ppb, the “GC Abundance” value ([2]; headspace at 40 seconds) is listed as 1000 and the “GC Abundance” value ([2]; headspace at 50 seconds) is listed as 5000.
